Experimental data reported in patent publication US20240245691A1 (Sitryx Therapeutics Limited, priority 2021, published 2024).
Read-outs that look alike come from different tables or passages of the source.

Legend:
Type in all cases: cell-based
[1] = tested on: IL-6; experiment: THP-1 AlphaLISA IL-6 cytokine assay (differentiated THP-1 cells); settings: Homo sapiens, THP-1, differentiated THP-1 cells, LPS 24 hr then Nigericin 1 hour; read-out: IL-6 (IC50)
Procedure: (§1) Measuring Inhibitory Effects on IL-1V Cytokine and IL-6 Output from THP-1s
(§2) The cytokine inhibition profiles of compounds of formula (I) were determined in a differentiated THP-1 cell assay. All assays were performed in RPMI-1640 growth medium (Gibco), supplemented with 10% fetal bovine serum (FBS; Gibco), 1% penicillin-streptomycin and 1% sodium pyruvate unless specified otherwise. The IL-1β and IL-6 cytokine inhibition assays were run in a background of differentiated THP-1 cells as described below. All reagents described were from Sigma-Aldrich unless specified otherwise. Compounds were prepared as 10 mM DMSO stocks.
(§3) THP-1 cells were expanded as a suspension up to 80% confluence in appropriate growth medium. Cells were harvested, suspended, and treated with an appropriate concentration of phorbol 12-myristate 13-acetate (PMA) over a 72 hr period (37° C./5% CO2).
(§4) Following 72 hrs of THP-1 cell incubation, cellular medium was removed and replaced with fresh growth media containing 1% of FBS. Working concentrations of compounds were prepared separately in 10% FBS treated growth medium and pre-incubated with the cells for 30 minutes (37° C./5% CO2). Following the 30 minute compound pre-incubation, THP-1s were treated with an appropriate concentration of LPS and the THP-1s were subsequently incubated for a 24 hr period (37° C./5% CO2). An appropriate final concentration of Nigericin was then dispensed into the THP-1 plates and incubated for 1 hour (37° C./5% CO2) before THP-1 supernatants were harvested and collected in separate polypropylene 96-well holding plates.
(§5) Reagents from each of the IL-1β and IL-6 commercial kits (Perkin Elmer) were prepared and run according to the manufacturer's instructions. Subsequently, fluorescence signal detection in a microplate reader was measured (EnVision® Multilabel Reader, Perkin Elmer).
(§6) Percentage inhibition was calculated per cytokine by normalising the sample data to the high and low controls used within each plate (+/−LPS respectively).
(§7) Dimethyl itaconate and 4-octyl itaconate were included as comparator compounds.

[2] = tested on: IL-1β; experiment: THP-1 AlphaLISA IL-1β cytokine assay (differentiated THP-1 cells); settings: Homo sapiens, THP-1, differentiated THP-1 cells
Procedure: as §1, §2, §3, §4, §5, §6, §7

[3] = tested on: NRF2 (nuclear factor erythroid 2-related factor 2); experiment: NRF2 +/-GSH activation assay (DiscoverX PathHunter NRF2 translocation kit, U2OS cells); settings: −GSH
[4] = LPS 24 hr then Nigericin 1 hour, read-out: IL-1β (IC50)
[5] = footnote a: data from repeated experiments, read-out: IL-1β (IC50), data from repeated experiments

| IC50 [1] | IC50 [2, 4] | EC50 ([3]; Homo sapiens, U2OS PathHunter cells, 6 hours, read-out: NRF2 activation EC50, −GSH) | IC50 [2, 5] | SMILES | Emax ([3]; Homo sapiens, U2OS, normalised to dimethyl fumarate high control, read-out: NRF2 activation Emax, −GSH) | NRF2 activation Emax, −GSH ([3]; normalised to dimethyl fumarate high control) |
| --- | --- | --- | --- | --- | --- | --- |
| > 100 µM | 25.3 µM |  |  | C=C(CC(=O)NCc1ccc(C(F)(F)F)cc1)C(=O)O [Example 6, 2-methylene-4-oxo-4-((4-(trifluoromethyl)benzyl)amino)butanoic acid] |  |  |
| > 100 µM | 29.6 µM |  |  | C=C(CC(=O)N[C@@H](C)c1ccc(C(F)(F)F)nc1)C(=O)O [Example 38, (S)-2-methylene-4-oxo-4-((1-(6-(trifluoromethyl)pyridin-3-yl)ethyl)amino) butanoic acid] |  |  |
| 11.9 µM | 42.7 µM |  |  | C=C(CC(=O)N[C@@H](C)c1ccc(C(F)(F)F)cn1)C(=O)OC1CCN(C(C)=O)CC1 [Example 35, 1-acetylpiperidin-4-yl (S)-2-methylene-4-oxo-4-((1-(5-(trifluoromethyl)pyridin-2-yl)ethyl)amino)butanoate] |  |  |
| 100 µM | > 100 µM | 21.4 µM |  | C=C(CC(=O)OC)C(=O)OC [dimethyl itaconate, Dimethyl itaconate, reference compound] | 137% | 137% |
| > 100 µM | 26.6 µM |  | 35.1 µM | C=C(CC(=O)N[C@@H](CO)c1ccc(C(F)(F)F)cc1)C(=O)O [Example 12, (R)-4-((2-hydroxy-1-(4-(trifluoromethyl)phenyl)ethyl)amino)-2-methylene-4-oxobutanoic acid] |  |  |
| > 61.1 µM | 33.7 µM |  | 32.6 µM | C=C(CC(=O)N[C@@H](C)c1ccc(Cl)cc1)C(=O)O [Example 15, (S)-4-((1-(4-chlorophenyl)ethyl)amino)-2-methylene-4-oxobutanoic acid] |  |  |
| > 100 µM | 43.5 µM |  |  | C=C(CC(=O)N[C@@H](CC)c1ccc(C(F)(F)F)cc1)C(=O)O [Example 8, (S)-2-methylene-4-oxo-4-((1-(4-(trifluoromethyl)phenyl)propyl)amino)butanoic acid] |  |  |
| > 31.6 µM | 56 µM |  |  | C=C(CC(=O)N[C@@H](C)c1ccc(C(F)F)cc1)C(=O)O [Example 18, (S)-4-((1-(4-(difluoromethyl)phenyl)ethyl)amino)-2-methylene-4-oxobutanoic acid] |  |  |
